Laboratory results: US8242168B2, “Use of phthalide derivatives for the treatment of type 2 diabetes mellitus” (DSM IP Assets B.V., priority 2003, dated 2012)
Where “and” joins values, the source holds several entries; their conditions need not be identical. Equal values may be shown once.

Legend:
C3H10T1/2 cells [1] = assay: Glucose uptake of adipocytes (radioactive 2-deoxyglucose); type: cell-based; conditions: for Basal glucose uptake / Basal glucose uptake (result in words): 48-h treatment; for Basal glucose uptake: absence of insulin, ± SEM; for Basal glucose uptake (result in words): different concentrations
Method: C3H10T1/2 cells (ATCC CCL-226) were grown for 5 days to confluence in DMEM supplemented with 10% FBS medium and induced with a mixture of insulin, dexamethasone and 3-isobutyl-1-methylxanthine to differentiate into adipocytes. Nine days after the beginning of induction, cells were treated for 48-h with ligustilide at different concentrations as shown in Table 2. Glucose uptake was determined using radioactive 2-deoxyglucose (10 μM 2-DG in HBS+0.5 μCi/ml of 3[H]-2-DG), measuring glucose uptake in the absence of insulin. Basal glucose uptake was increased by 48-h treatment with ligustilide in a dose-dependent manner (Table 2). This increase in glucose uptake was specific, since the increase was not observed in the presence of phloretin, a known inhibitor of specific glucose uptake.
Growing, induction and treatment of C3H10T1/2 cells were exactly as described in Example 1, with die exception that 3-butylphthalide at different concentrations was used instead of ligustilide.
Growing, induction and treatment of C3H10T1/2 cells were exactly as described in Example 1, with the exception that 3-butylidenphthalide at different concentrations was used instead of ligustilide.

C3H10T1/2 cells [2] = assay: Differentiation of adipocytes (oil Red O staining); type: cell-based; conditions: for Differentiation of the cells into adipocytes versus insulin alone (result in words): co-treatment with insulin, 10 days; for Mean OD ± SEM (oil Red O, 540 nm): 10-day treatment
Method: After the 10-day treatment, the cells were stained with oil Red O as follows: cells were washed 2× in PBS and fixed in 10% formalin at room temperature for 1 h. After removal of formalin, 200 μl of oil Red O staining solution (3:2 mixture of 0.5% w/v oil Red O stock solution and water) was applied to each well. The cells were incubated for 20 min at room temperature, washed twice in 2×PBS and incubated for 10 min with 300 μl of isopropanol/well for oil Red O extraction. Quantification of oil Red O was determined by measuring absorbance at 540 nm (mean OD).
The measurement of adipocyte differentiation using the oil Red O assay was performed as described in Example 4.

C57BLKS/J db/db mice = assay: Blood glucose and oral glucose tolerance test in db/db mice; type: in vivo
Method: The efficacy of ligustilide on glucose tolerance was tested in a 7-day study in C57BLKS/J db/db mice (n=10/group), a model of late type 2 diabetes mellitus with severe hyperglycemia which is widely used to determine the efficacy of PPARγ ligands.
Male db/db mice were obtained from Jackson Laboratory (Bar Harbor, Me., USA). Adult mice aged 12 weeks were used in the experiment. Mice were housed individually in plastic cages with bedding and allowed free access to standard rodent food and tap water. The animal rooms were controlled for temperature (24° C.), humidity (55%), and light (12-h light-dark cycle). The animals were randomized in two groups and ligustilide was administered orally to one of the groups for 7 days at a dose of 200 mg/kg BW/day. After 7 days of treatment the concentration of glucose was determined in blood from fed animals, i.e., animals which were not restricted from food. After a period of 5 days of treatment an oral glucose tolerance test (OGTT) was performed. For the OGTT mice were fasted overnight and then a 1-g glucose/kg BW solution was orally administered. […] Blood glucose was measured by a glucose analyzer (Glucotrend Premium, Roche Diagnostics, Rotkreuz, Switzerland).

[3] = insulin 1 × 10^−7 M + compound 1 × 10^−5 M
[4] = insulin 1 × 10^−7 M + compound 1 × 10^−4 M

Row | Compound | Basal glucose uptake (C3H10T1/2 cells [1]; 1 × 10^−4 M) | Basal glucose uptake (C3H10T1/2 cells [1]; 1 × 10^−5 M) | Basal glucose uptake (C3H10T1/2 cells [1]; 1 × 10^−6 M) | Basal glucose uptake (result in words) (C3H10T1/2 cells [1]) | Differentiation of the cells into adipocytes versus insulin alone (result in words) (C3H10T1/2 cells [2]) | Mean OD ± SEM (oil Red O, 540 nm) (C3H10T1/2 cells [2]; [3]) | Mean OD ± SEM (oil Red O, 540 nm) (C3H10T1/2 cells [2]; [4]) | Basal glucose uptake (C3H10T1/2 cells [1]; 5 × 10^−5 M) | also measured
1 | CCCC[C@@H]1OC(=O)c2ccccc21 (stereo in doubt) [3-Butylphthalide] | 136.7 ± 8.5 % of control | 97.5 ± 8.5 % of control | 99.3 ± 8.5 % of control | increase | higher differentiation | 0.21 ± 0.01 |  |  | 
2 | CCC/C=C1\OC(=O)c2ccccc21 [3-Butylidenephthalide] | 137.3 ± 8.5 % of control | 123.8 ± 8.5 % of control | 107.0 ± 8.5 % of control | increase | higher differentiation | 0.15 ± 0.01 | 0.28 ± 0.01 |  | Mean OD ± SEM (oil Red O, 540 nm) (C3H10T1/2 cells [2]; insulin 1 × 10^−7 M + compound 5 × 10^−5 M): 0.22 ± 0.01
3 | CC1(COc2ccc(CC3SC(=O)NC3=O)cc2)CCCCC1 (centres unmarked) [Ciglitazone, reference compound] |  |  |  |  |  |  |  | 381.5 ± 24.4 % of control | 
4 | CCC/C=C1\OC(=O)C2=C1CCC=C2 [Ligustilide] | 175.0 ± 24.4 % of control |  |  | increased | higher differentiation |  |  | 131.8 ± 24.4 % of control | Basal glucose uptake (C3H10T1/2 cells [1]; 2 × 10^−4 M): 294.4 ± 24.4 % of control; Basal glucose uptake (C3H10T1/2 cells [1]; 5 × 10^−6 M): 105.9 ± 24.4 % of control; Increase in glucose uptake in the presence of phloretin (C3H10T1/2 cells [1]; phloretin, inhibitor of specific glucose uptake): not observed; Mean OD ± SEM (oil Red O, 540 nm) (C3H10T1/2 cells [2]; insulin 2 × 10^−7 M + compound 5 × 10^−6 M): 1.71 ± 0.34; Glucose AUC of an OGTT (result in words) (C57BLKS/J db/db mice; 1 g glucose/kg body weight, day 5): significantly reduced; Blood glucose levels during the OGTT versus control (result in words) (C57BLKS/J db/db mice; OGTT on day 5, 15-180 min): lower at all time points; Glucose levels of fasted animals versus untreated control (result in words) (C57BLKS/J db/db mice; after 5 days of treatment, overnight fasting): significantly decreased; Glucose levels of fed animals (result in words) (C57BLKS/J db/db mice; after 7 days of treatment, 200 mg/kg BW/day): significantly lowered; Blood Glucose Fasted (C57BLKS/J db/db mice; db/db mice, 200 mg/kg BW/day orally, after 5 days, overnight fasting): 196 mg/dL; Blood Glucose Fed (C57BLKS/J db/db mice; db/db mice, 200 mg/kg BW/day orally, after 7 days, fed animals): 388 mg/dL; Glucose AUC (OGTT) (C57BLKS/J db/db mice; db/db mice, 200 mg/kg BW/day orally, day 5, OGTT 1 g glucose/kg BW, 0-180 min): 51039
5 | CCCC[C@@H]1OC(=O)C2=CCCCC21 (some centres unmarked) [Sedanolide] |  |  |  |  | higher differentiation | 0.15 ± 0.01 | 0.18 ± 0.01 |  | 
6 | Insulin [reference compound] |  |  |  |  |  |  |  |  | Mean OD ± SEM (oil Red O, 540 nm) (C3H10T1/2 cells [2]; insulin 1 × 10^−7 M alone): 0.14 ± 0.01 and 0.16 ± 0.01; Mean OD ± SEM (oil Red O, 540 nm) (C3H10T1/2 cells [2]; insulin 2 × 10^−7 M alone (negative control)): 0.687 ± 0.34
